Experimental data from article PMC3495668, “Serotonin-Induced Hypersensitivity via Inhibition of Catechol O-Methyltransferase Activity” (Molecular Pain, 2012).

Assays:
[1] = biological target: T1, catechol O-methyltransferase (COMT) (Sus scrofa, UniProt F1RHN3); experiment: SPR (Biacore […]); also radiolabelled SAM activity assay, Ki,app […]; assay type: binding
T1 construct: Purified COMT protein (derived from porcine liver), biotinylated at surface lysines
T1 sequence (F1RHN3 1-270): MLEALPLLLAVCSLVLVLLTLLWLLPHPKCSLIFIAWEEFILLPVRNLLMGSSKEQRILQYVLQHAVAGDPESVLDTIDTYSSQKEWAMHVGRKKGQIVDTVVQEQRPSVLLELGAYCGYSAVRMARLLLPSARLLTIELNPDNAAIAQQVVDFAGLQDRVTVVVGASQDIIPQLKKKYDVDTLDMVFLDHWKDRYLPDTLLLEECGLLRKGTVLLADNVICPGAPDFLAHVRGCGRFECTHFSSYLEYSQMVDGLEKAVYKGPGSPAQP

[2] = substrate: Oc1ccccc1O; experiment: radiolabelled SAM methylation assay, Michaelis-Menten KM; assay type: biochemical, Sus scrofa; settings: S-adenosyl-L-methionine; Mg2+ ([…] MgCl2) catechol substrate site

NCCc1c[nH]c2ccc(O)cc12 [serotonin]
Kd [1]: ~87 µM

B1: catechol O-methyltransferase (COMT) (Sus scrofa) (protein)
chain: MLEALPLLLAVCSLVLVLLTLLWLLPHPKCSLIFIAWEEFILLPVRNLLMGSSKEQRILQYVLQHAVAGDPESVLDTIDTYSSQKEWAMHVGRKKGQIVDTVVQEQRPSVLLELGAYCGYSAVRMARLLLPSARLLTIELNPDNAAIAQQVVDFAGLQDRVTVVVGASQDIIPQLKKKYDVDTLDMVFLDHWKDRYLPDTLLLEECGLLRKGTVLLADNVICPGAPDFLAHVRGCGRFECTHFSSYLEYSQMVDGLEKAVYKGPGSPAQP
notes: Purified COMT
Km [2]: 16 µM
